Biological target: T1, Human autotaxin enzyme (Homo sapiens, UniProt Q13822)
T1 construct: purchased R&D System
Assay: Evaluation of autotaxin inhibitor, Method C (Test Example 3): 18:0 Lyso PC, choline assay, Resorufin fluorescence
Type: biochemical
Details: Assay Method C (Test Example 3), human autotaxin, 18:0 Lyso PC substrate; read-out: Inhibitory Activity (autotaxin enzyme inhibitory activity, IC50 class)
Procedure: (Method C) Evaluation of Autotaxin Inhibitor
Solution B containing 100 mM Tris-HCl buffer (pH7.5), 150 mM NaCl, 5 mM MgCl2 and 0.05% Triton X-100 was prepared. Human autotaxin enzyme (purchased from R&D System) was diluted with Solution B, and 2.5 μL of which was added to a solution of test compound in DMSO. Furthermore, 2.5 μl of 200 μM 18:0 Lyso PC (purchased from Avanti Polar Lipids) in Solution B was added and allowed to react at room temperature for 2 hours. After completion of the reaction, 15 μL of the coline assay reagent (100 mM Tris-HCl buffer (pH7.5), 5 mM MgCl2, 77 μg/mL choline oxidase, 10 μg/mL peroxidase, 25 μM 10-acetyl-3,7-dihydroxyphenoxazine and excess autotaxin inhibitor) was added and allowed to react at room temperature for 20 minutes. The fluorescent dye Resorufin, which was produced by the reaction, was detected. The fluorescence was detected using ViewLux (PerkinElmer, Inc.) with an excitation wavelength of 531 nm and a fluorescence wavelength of 598 nm.
The percent inhibition of the test compound was calculated by assuming the sample with no test compound as 0% inhibition and the sample with no enzyme as 100% inhibition, and the percent inhibitions at different concentrations of the test compound were plotted to obtain a concentration-dependent curve.

Compound	IC50
CCCCCn1c(-c2cccc(NS(C)(=O)=O)c2)cc(=O)n2cc(-c3ccc(Cl)cc3)nc12 [Compound 441]	0.1 to 1 µM
CCCCCn1c(-c2ccc(CCCC)cc2)cc(=O)n2cc(-c3ccc(Cl)cc3)nc12 [Compound 442]	> 1 µM
CCCCCn1c(-c2ccccc2F)cc(=O)n2cc(-c3ccc(Cl)cc3)nc12 [Compound 443]	0.1 to 1 µM
CCCCCn1c(-c2cccc(F)c2)cc(=O)n2cc(-c3ccc(Cl)cc3)nc12 [Compound 444]	0.1 to 1 µM
CCCCCn1c(-c2cccc(N3CCOCC3)c2)cc(=O)n2cc(-c3ccc(Cl)cc3)nc12 [Compound 445]	0.1 to 1 µM
CCCCCn1c(-c2ccc(CCCO)cc2)cc(=O)n2cc(-c3ccc(Cl)cc3)nc12 [Compound 446]	0.1 to 1 µM
CCCCCn1c(-c2cccc(C(C)=O)c2)cc(=O)n2cc(-c3ccc(Cl)cc3)nc12 [Compound 447]	0.01 to 0.1 µM
CCCCCn1c(-c2ccc3[nH]c(=O)[nH]c3c2)cc(=O)n2cc(-c3ccc(Cl)cc3)nc12 [Compound 448]	0.01 to 0.1 µM
CCCCCn1c(-c2ccc(N3C[C@@H](CNC(C)=O)OC3=O)cc2F)cc(=O)n2cc(-c3ccc(Cl)cc3)nc12 [Compound 449]	0.01 to 0.1 µM
CCCCCn1c(-c2ccc3ncsc3c2)cc(=O)n2cc(-c3ccc(Cl)cc3)nc12 [Compound 450]	0.01 to 0.1 µM
CCCCCn1c(-c2ccc(OCCO)c(S(N)(=O)=O)c2)cc(=O)n2cc(-c3ccc(Cl)cc3)nc12 [Compound 451]	0.01 to 0.1 µM
CCCCCn1c(-c2cccc(S(=O)(=O)N3CCOCC3)c2)cc(=O)n2cc(-c3ccc(Cl)cc3)nc12 [Compound 452]	0.01 to 0.1 µM
CCCCCn1c(-c2ccc(C(=O)OCC)cc2)cc(=O)n2cc(-c3ccc(Cl)cc3)nc12 [Compound 453]	0.1 to 1 µM
CCCCCn1c(-c2cnc(OC)nc2OC)cc(=O)n2cc(-c3ccc(Cl)cc3)nc12 [Compound 454]	0.01 to 0.1 µM
CCCCCn1c(-c2cnccc2OC)cc(=O)n2cc(-c3ccc(Cl)cc3)nc12 [Compound 455]	0.1 to 1 µM
CCCCCn1c(-c2ccc(OC)nc2)cc(=O)n2cc(-c3ccc(Cl)cc3)nc12 [Compound 456]	0.01 to 0.1 µM
CCCCCn1c(-c2ccc(F)nc2)cc(=O)n2cc(-c3ccc(Cl)cc3)nc12 [Compound 457]	0.01 to 0.1 µM
CCCCCn1c(-c2cnc(OC)c(Cl)c2)cc(=O)n2cc(-c3ccc(Cl)cc3)nc12 [Compound 458]	0.1 to 1 µM
CCCCCn1c(-c2cnc(N)nc2)cc(=O)n2cc(-c3ccc(Cl)cc3)nc12 [Compound 459]	0.01 to 0.1 µM
CCCCCn1c(-c2ccnc(OC)c2)cc(=O)n2cc(-c3ccc(Cl)cc3)nc12 [Compound 460]	0.1 to 1 µM
CCCCCn1c(-c2cncc(OC)c2)cc(=O)n2cc(-c3ccc(Cl)cc3)nc12 [Compound 461]	0.01 to 0.1 µM
CCCCCn1c(-c2ccc(C#N)nc2)cc(=O)n2cc(-c3ccc(Cl)cc3)nc12 [Compound 462]	0.01 to 0.1 µM

Compound	IC50
CCCCCn1c(-c2cnc(O)nc2)cc(=O)n2cc(-c3ccc(Cl)cc3)nc12 [Compound 463]	0.01 to 0.1 µM
CCCCCn1c(-c2ccc(C(=O)NCCC#N)cc2)cc(=O)n2cc(-c3ccc(Cl)cc3)nc12 [Compound 465]	0.01 to 0.1 µM
CCCCCn1c(-c2ccc(C(=O)Nc3ccncc3)cc2)cc(=O)n2cc(-c3ccc(Cl)cc3)nc12 [Compound 466]	0.01 to 0.1 µM
CCCCCn1c(-c2ccc(C(=O)N(CCO)CCO)cc2)cc(=O)n2cc(-c3ccc(Cl)cc3)nc12 [Compound 467]	0.01 to 0.1 µM
CCCCCn1c(-c2ccc(C(=O)NC(C)(C)C)cc2)cc(=O)n2cc(-c3ccc(Cl)cc3)nc12 [Compound 468]	0.1 to 1 µM
CCCCCn1c(-c2ccc(C(=O)Nc3ccccc3)cc2)cc(=O)n2cc(-c3ccc(Cl)cc3)nc12 [Compound 469]	0.01 to 0.1 µM
CCCCCn1c(-c2ccc(C(=O)NCCNC(C)=O)cc2)cc(=O)n2cc(-c3ccc(Cl)cc3)nc12 [Compound 470]	0.01 to 0.1 µM
CCCCCn1c(-c2ccc(C(=O)Nc3ccc(OC)cc3)cc2)cc(=O)n2cc(-c3ccc(Cl)cc3)nc12 [Compound 471]	0.1 to 1 µM
CCCCCn1c(-c2ccc(C(=O)N3CCC(O)CC3)cc2)cc(=O)n2cc(-c3ccc(Cl)cc3)nc12 [Compound 472]	0.01 to 0.1 µM
CCCCCn1c(-c2ccc(C(=O)N3CCOCC3)cc2)cc(=O)n2cc(-c3ccc(Cl)cc3)nc12 [Compound 473]	0.01 to 0.1 µM
CCCCCn1c(-c2ccc(C(=O)N3CCN(C(C)=O)CC3)cc2)cc(=O)n2cc(-c3ccc(Cl)cc3)nc12 [Compound 474]	0.01 to 0.1 µM
CCCCCn1c(-c2ccc(C(=O)NCCF)cc2)cc(=O)n2cc(-c3ccc(Cl)cc3)nc12 [Compound 475]	0.01 to 0.1 µM
CCCCCn1c(-c2ccc(C(=O)N(C)CCO)cc2)cc(=O)n2cc(-c3ccc(Cl)cc3)nc12 [Compound 476]	0.01 to 0.1 µM
CCCCCn1c(-c2ccc(C(=O)NC(C)(C)CO)cc2)cc(=O)n2cc(-c3ccc(Cl)cc3)nc12 [Compound 477]	0.01 to 0.1 µM
CCCCCn1c(-c2ccc(C(=O)NCCC)cc2)cc(=O)n2cc(-c3ccc(Cl)cc3)nc12 [Compound 478]	0.01 to 0.1 µM
CCCCCn1c(-c2ccc(C(=O)NCCCOC)cc2)cc(=O)n2cc(-c3ccc(Cl)cc3)nc12 [Compound 479]	0.01 to 0.1 µM
CCCCCn1c(-c2ccc(C(=O)NCCOCCO)cc2)cc(=O)n2cc(-c3ccc(Cl)cc3)nc12 [Compound 480]	0.01 to 0.1 µM
CCCCCn1c(-c2ccc(C(=O)NCCCO)cc2)cc(=O)n2cc(-c3ccc(Cl)cc3)nc12 [Compound 481]	0.01 to 0.1 µM
CCCCCn1c(-c2ccc(C(=O)NC(CO)CO)cc2)cc(=O)n2cc(-c3ccc(Cl)cc3)nc12 [Compound 482]	< 0.01 µM
CCCCCn1c(-c2ccc(C(=O)NCC3CC3)cc2)cc(=O)n2cc(-c3ccc(Cl)cc3)nc12 [Compound 483]	0.01 to 0.1 µM
C#CCNC(=O)c1ccc(-c2cc(=O)n3cc(-c4ccc(Cl)cc4)nc3n2CCCCC)cc1 [Compound 484]	0.01 to 0.1 µM
CCCCCn1c(-c2ccc(C(=O)N3CCN(CCOC)CC3)cc2)cc(=O)n2cc(-c3ccc(Cl)cc3)nc12 [Compound 485]	0.01 to 0.1 µM

Compound	IC50
CCCCCn1c(-c2ccc(C(=O)NC[C@H](O)CO)cc2)cc(=O)n2cc(-c3ccc(Cl)cc3)nc12 [Compound 486]	< 0.01 µM
CCCCCn1c(-c2ccc(C(=O)NCC(O)CO)cc2)cc(=O)n2cc(-c3ccc(Cl)cc3)nc12 (stereo not drawn) [Compound 487]	< 0.01 µM
CCCCCn1c(-c2ccc(C(=O)Nc3ncco3)cc2)cc(=O)n2cc(-c3ccc(Cl)cc3)nc12 [Compound 488]	0.01 to 0.1 µM
CCCCCn1c(-c2ccc(C(=O)NC3CN(C)C3)cc2)cc(=O)n2cc(-c3ccc(Cl)cc3)nc12 [Compound 489]	0.01 to 0.1 µM
CCCCCn1c(-c2ccc(C(=O)NC3COC3)cc2)cc(=O)n2cc(-c3ccc(Cl)cc3)nc12 [Compound 490]	< 0.01 µM
CCCCCn1c(-c2ccc(C(=O)N3CCC4(CN(C(=O)OC(C)(C)C)C4)C3)cc2)cc(=O)n2cc(-c3ccc(Cl)cc3)nc12 [Compound 491]	0.1 to 1 µM
CCCCCn1c(-c2ccc(C(=O)N3CCS(=O)(=O)CC3)cc2)cc(=O)n2cc(-c3ccc(Cl)cc3)nc12 [Compound 492]	0.01 to 0.1 µM
CCCCCn1c(-c2ccc(C(=O)NC3CCS(=O)(=O)CC3)cc2)cc(=O)n2cc(-c3ccc(Cl)cc3)nc12 [Compound 493]	0.01 to 0.1 µM
CCCCCn1c(-c2ccc(C(=O)NCCS(C)(=O)=O)cc2)cc(=O)n2cc(-c3ccc(Cl)cc3)nc12 [Compound 494]	0.01 to 0.1 µM
CCCCCn1c(-c2ccc(C(=O)NC)cc2)cc(=O)n2cc(-c3ccc(Cl)cc3)nc12 [Compound 495]	0.01 to 0.1 µM
CCCCCn1c(-c2ccc(C(=O)NCC(=O)N(C)C)cc2)cc(=O)n2cc(-c3ccc(Cl)cc3)nc12 [Compound 496]	0.01 to 0.1 µM
CCCCCn1c(-c2ccc(C(=O)NC3(CO)CCC3)cc2)cc(=O)n2cc(-c3ccc(Cl)cc3)nc12 [Compound 497]	0.01 to 0.1 µM
CCCCCn1c(-c2ccc(C(=O)N3CCN(S(C)(=O)=O)CC3)cc2)cc(=O)n2cc(-c3ccc(Cl)cc3)nc12 [Compound 498]	0.01 to 0.1 µM
CCCCCn1c(-c2ccc(C(=O)NCCS(N)(=O)=O)cc2)cc(=O)n2cc(-c3ccc(Cl)cc3)nc12 [Compound 499]	0.01 to 0.1 µM
CCCCCn1c(-c2ccc(C(=O)NCC(C)=O)cc2)cc(=O)n2cc(-c3ccc(Cl)cc3)nc12 [Compound 500]	0.01 to 0.1 µM
CCCCCn1c(-c2ccc(C(=O)NCCS(=O)(=O)N3CCOCC3)cc2)cc(=O)n2cc(-c3ccc(Cl)cc3)nc12 [Compound 501]	0.01 to 0.1 µM
CCCCCn1c(-c2ccc(C(=O)NC3CCOC3=O)cc2)cc(=O)n2cc(-c3ccc(Cl)cc3)nc12 (stereo not drawn) [Compound 502]	0.01 to 0.1 µM
CCCCCn1c(-c2ccc(C(=O)N3C[C@@H]4COC(=O)[C@@H]4C3)cc2)cc(=O)n2cc(-c3ccc(Cl)cc3)nc12 [Compound 503]	0.01 to 0.1 µM
CCCCCn1c(-c2ccc(C(=O)NC[C@@H](O)CO)cc2)cc(=O)n2cc(-c3ccc(Cl)cc3)nc12 [Compound 504]	0.01 to 0.1 µM
CCCCCn1c(-c2ccc(C(=O)NCCCn3ccnc3)cc2)cc(=O)n2cc(-c3ccc(Cl)cc3)nc12 [Compound 505]	< 0.01 µM
CCCCCn1c(-c2ccc(C(=O)NCc3ccco3)cc2)cc(=O)n2cc(-c3ccc(Cl)cc3)nc12 [Compound 506]	0.01 to 0.1 µM
CCCCCn1c(-c2ccc(C(=O)NCc3ccccn3)cc2)cc(=O)n2cc(-c3ccc(Cl)cc3)nc12 [Compound 507]	0.01 to 0.1 µM

Source: US20160002247A1, “8-SUBSTITUTED IMIDAZOPYRIMIDINONE DERIVATIVE HAVING AUTOTAXIN INHIBITORY ACTIVITY” (THE UNIVERSITY OF TOKYO, priority 2013, published 2016)
